Test results from patent US4068074A, “Cephalosporin derivatives having at the 3-position of the cephem ring a heterocyclic thiomethyl group with a carboxy or sulfo group and at the 7-position of the cephem ring an α-heterocylic acylaminophenyl-acetamide group” (priority 1974, dated 1978).
Converted amounts (≈) assume the structure as drawn. Like-named read-outs stand apart in the source and are kept apart here.

Legend:
[1] = tested on: Escherichia coli kauffmann 0-1; test: MIC against bacteria (Table I), strain (7); assay type: cell-based; conditions: Escherichia coli
Source text: (§1) Now, for illustrating the excellent pharmacological effects of the compounds of this invention, the values of MIC (γ/ml.) of the compounds against various bacteria are shown in Table 1, in which the compounds of this invention used are shown by example numbers.
(7) Escherichia coli kauffmann 0-1

Staphylococcus Onuma = test: MIC against bacteria (Table I), strain (18); assay type: cell-based; conditions: (18) Staphylococcus Onuma; read-out: MIC
Source text: as §1
(18) Staphylococcus Onuma

Salmonella enteritidis = test: MIC against bacteria (Table I), strain (10); assay type: cell-based; conditions: Salmonella enterica
Source text: as §1
(10) Salmonella enteritidis

[2] = tested on: Bacillus subtilis ATCC 6633; test: MIC against bacteria (Table I), strain (14); assay type: cell-based; conditions: ATCC6633; (14) Bacillus subtilis ATCC 6633; read-out: MIC
Source text: as §1
(14) Bacillus subtilis ATCC 6633

[3] = tested on: Proteus mirabilis IXM OM-19; test: MIC against bacteria (Table I), strain (3); assay type: cell-based; conditions: IXMOM19; (3) Proteus mirabilis IXM OM-19; read-out: MIC
Source text: as §1
(3) Proteus mirabilis IXM OM-19

Shigella sonnei II 37148 = test: MIC against bacteria (Table I), strain (12); assay type: cell-based; conditions: II37148; (12) Shigella sonnei II 37148; read-out: MIC
Source text: as §1

[4] = tested on: Pseudomonas aeruginosa ATCC 8689; test: MIC against bacteria (Table I), strain (4); assay type: cell-based; conditions: ATCC8689; (4) Pseudomonas aeruginosa ATCC 8689; read-out: MIC
Source text: as §1
(4) Pseudomonas aeruginosa ATCC 8689

Salmonella typhi H901 W = test: MIC against bacteria (Table I), strain (9); assay type: cell-based; conditions: Salmonella enterica, TYPHI
Source text: as §1
(9) Salmonella typhi H901 W

Proteus vulgaris 0X 19US = test: MIC against bacteria (Table I), strain (2); assay type: cell-based; conditions: 0X19US; (2) Proteus vulgaris 0X 19US; read-out: MIC
Source text: as §1
(2) Proteus vulgaris 0X 19US

[5] = tested on: Bacillus megatherium 10778; test: MIC against bacteria (Table I), strain (13); assay type: cell-based; conditions: (13) Bacillus megatherium 10778; read-out: MIC
Source text: as §1

[6] = Solubility of salts in water (Table 2); assay type: physicochemical; conditions: disodium salt, water, showing pH 7.4; read-out: Solubility: disodium salt dissolved in water in an amount of
Source text: An advantage of the compounds of this invention is that the salts, for example, sodium salts of these compounds are readily soluble in water at pH of living bodies, which makes them suitable for injections at high concentration. The solubility of these compounds are illustrated in Table 2 together with a control example.

[7] = tested on: Staphylococcus Shimanishi; test: MIC against bacteria (Table I), strain (17); assay type: cell-based
Source text: as §1
(17) Staphylococcus Shimanishi

[8] = tested on: Shigella flexneri 2a 1675; test: MIC against bacteria (Table I), strain (11); assay type: cell-based; conditions: 2A1675; (11) Shigella flexneri 2a 1675; read-out: MIC
Source text: as §1

[9] = tested on: Micrococcus flavus ATCC 10240; test: MIC against bacteria (Table I), strain (15); assay type: cell-based; conditions: ATCC10240
Source text: as §1
(15) Micrococcus flavus ATCC 10240

[10] = tested on: Pseudomonas aeruginosa 99 (Gentamycin resistant); test: MIC against bacteria (Table I), strain (5); assay type: cell-based; conditions: (5) Pseudomonas aeruginosa 99 (Gentamycin resistant); read-out: MIC
Source text: as §1
(5) Pseudomonas aeruginosa 99 (Gentamycin resistant)

[11] = tested on: Psuedomonas ovalis IMA 1002; test: MIC against bacteria (Table I), strain (6); assay type: cell-based; conditions: (6) Psuedomonas ovalis IMA 1002; read-out: MIC
Source text: as §1
(6) Psuedomonas ovalis IMA 1002

[12] = tested on: Staphylococcus aureus 209P; test: MIC against bacteria (Table I), strain (16); assay type: cell-based; conditions: (16) Staphylococcus aureus 209P; read-out: MIC
Source text: as §1
(16) Staphylococcus aureus 209P

[13] = tested on: Klebsiella pneumoniae ATCC 10031; test: MIC against bacteria (Table I), strain (8); assay type: cell-based; conditions: ATCC10031
Source text: as §1
(8) Klebsiella pneumoniae ATCC 10031

Proteus vulgaris OXK US = test: MIC against bacteria (Table I), strain (1); assay type: cell-based; conditions: (1) Proteus vulgaris OXK US; read-out: MIC
Source text: as §1
(1) Proteus vulgaris OXK US

[14] = Residual antibacterial activity after incubation with 90% plasma (Table 4); assay type: in vitro ADME, male Sprague-Dowley rat; conditions: 90% rat plasma
Protocol: (§2) The relation between the reaction period of time and the antibacterial activity (residual activity, %) when these compounds are incubated with the plasma and the liver homogenate of a male Sprague-Dowley rat is shown in Table 4. The residual antibacterial activity was measured by a thin-layer cup method according to Bacillus subtilis ATCC 6633.
A*Residual activity (%) when incubated with 90% plasma.

[15] = tested on: β-lactamase isolated from Pseudomonas aeruginosa 21; test: Resistance to β-lactamase: amount of unaltered test sample (Table 3); assay type: biochemical; conditions: initial concentration 100γ/ml
Source text: For example, the relation between the amount (γ/ml) of an unaltered test sample at an initial concentration of the sample 100γ/ml against β-lactamase isolated from Pseudomonas aeruginosa 21 at various dilutions of the enzyme were investigated.

[16] = Residual antibacterial activity after incubation with 10% liver homogenate (Table 4); assay type: in vitro ADME, male Sprague-Dowley rat; conditions: 10% rat liver homogenate
Protocol: as §2
B*Residual activity (%) when incubated with 10% liver homogenate.

SMILES: Cc1nc(SCC2=C(C(=O)O)N3C(=O)[C@@H](NC(=O)[C@H](NC(=O)c4cnccc4O)c4ccccc4)[C@H]3SC2)sc1SCC(=O)O [Example 24, 7-[D-α-(4-hydroxynicotinoylamido)-α-phenylacetamido]-3-(5-carboxymethylthio-4-methylthiazol-2-yl)thiomethyl-Δ^3-cephem-4-carboxylic acid]
- MIC [1]: 3.13 µg/mL (≈ 4.55 µM)
- MIC (Staphylococcus Onuma): 6.25 µg/mL (≈ 9.09 µM)
- MIC (Salmonella enteritidis; (10) Salmonella enteritidis, read-out: MIC): 0.78 µg/mL (≈ 1.13 µM)
- MIC [2]: 0.39 µg/mL (≈ 0.567 µM)
- MIC [3]: 0.19 µg/mL (≈ 0.276 µM)
- MIC (Shigella sonnei II 37148): 3.13 µg/mL (≈ 4.55 µM)
- MIC [4]: 12.5 µg/mL (≈ 18.2 µM)
- MIC (Salmonella typhi H901 W): 1.56 µg/mL (≈ 2.27 µM)
- MIC (Proteus vulgaris 0X 19US): < 0.09 µg/mL
- MIC [5]: 0.78 µg/mL (≈ 1.13 µM)
- solubility [6]: > 200 mg/mL
- MIC ([7]; (17) Staphylococcus Shimanishi, read-out: MIC): 6.25 µg/mL (≈ 9.09 µM)
- MIC [8]: 1.56 µg/mL (≈ 2.27 µM)
- MIC ([9]; (15) Micrococcus flavus ATCC 10240, read-out: MIC): 6.25 µg/mL (≈ 9.09 µM)
- MIC [10]: 6.25 µg/mL (≈ 9.09 µM)
- MIC [11]: 12.5 µg/mL (≈ 18.2 µM)
- MIC [12]: 0.78 µg/mL (≈ 1.13 µM)
- MIC ([13]; (8) Klebsiella pneumoniae ATCC 10031, read-out: MIC): 6.25 µg/mL (≈ 9.09 µM)
- MIC (Proteus vulgaris OXK US): < 0.09 µg/mL

SMILES: O=C(O)CSc1nnc(SCC2=C(C(=O)O)N3C(=O)[C@@H](NC(=O)[C@H](NC(=O)c4cnccc4O)c4ccccc4)[C@H]3SC2)s1 [Example 4, 7-[D-α-(4-hydroxynicotinoylamido)-α-phenylacetamido]-3-(5-carboxymethylthio-1,3,4-thiadiazol-2-yl)thiomethyl-Δ^3-cephem-4-carboxylic acid]
- MIC [1]: 3.13 µg/mL (≈ 4.64 µM)
- MIC (Staphylococcus Onuma): 6.25 µg/mL (≈ 9.26 µM)
- MIC (Salmonella enteritidis; ENTERITIDIS): 0.39 µg/mL (≈ 0.578 µM)
- MIC [2]: 0.19 µg/mL (≈ 0.282 µM)
- MIC [3]: 0.39 µg/mL (≈ 0.578 µM)
- MIC (Shigella sonnei II 37148): 3.13 µg/mL (≈ 4.64 µM)
- MIC [4]: 12.5 µg/mL (≈ 18.5 µM)
- remaining at 0.25 h ([14]; 90% plasma, 15 minute): 97%
- remaining at 0.5 h ([14]; 90% plasma, 30 minute): 93.9%
- remaining at 1.5 h ([14]; 90% plasma, 90 minute): 103%
- Residual activity ([14]; 0 minute): 100%
- MIC (Salmonella typhi H901 W): 1.56 µg/mL (≈ 2.31 µM)
- MIC (Proteus vulgaris 0X 19US): 0.19 µg/mL (≈ 0.282 µM)
- MIC [5]: 0.19 µg/mL (≈ 0.282 µM)
- solubility [6]: > 200 mg/mL
- MIC ([7]; Staphylococcus): 3.13 µg/mL (≈ 4.64 µM)
- MIC [8]: 0.78 µg/mL (≈ 1.16 µM)
- MIC ([9]; Micrococcus flavus): 3.13 µg/mL (≈ 4.64 µM)
- Amount of unaltered test sample ([15]; β-lactamase dilution ×2): 0 µg/mL
- Amount of unaltered test sample ([15]; β-lactamase dilution ×4): 29.6 µg/mL
- Amount of unaltered test sample ([15]; β-lactamase dilution ×8): 61.0 µg/mL
- Amount of unaltered test sample ([15]; β-lactamase dilution ×16): 100 µg/mL
- Amount of unaltered test sample ([15]; β-lactamase dilution ×32): 100 µg/mL
- Amount of unaltered test sample ([15]; β-lactamase dilution ×64): 100 µg/mL
- Amount of unaltered test sample ([15]; β-lactamase dilution ×128): 100 µg/mL
- Amount of unaltered test sample ([15]; β-lactamase dilution ×256): 100 µg/mL
- Amount of unaltered test sample ([15]; β-lactamase dilution ×512): 100 µg/mL
- Amount of unaltered test sample ([15]; β-lactamase dilution ×1024): 100 µg/mL
- MIC [10]: 6.25 µg/mL (≈ 9.26 µM)
- MIC [11]: 6.25 µg/mL (≈ 9.26 µM)
- MIC [12]: 0.78 µg/mL (≈ 1.16 µM)
- MIC ([13]; Klebsiella pneumoniae): 3.13 µg/mL (≈ 4.64 µM)
- MIC (Proteus vulgaris OXK US): < 0.09 µg/mL
- remaining at 0.25 h ([16]; 10% liver homogenate, 15 minute, read-out: Residual activity): 93.5%
- remaining at 0.5 h ([16]; 10% liver homogenate, 30 minute, read-out: Residual activity): 91.3%
- remaining at 1.5 h ([16]; 10% liver homogenate, 90 minute, read-out: Residual activity): 102%
- Residual activity ([16]; 0 minute): 100%
